Data set [1] is classed as physicochemical. How it is done:
The stability of Cyclosporin derivatives were evaluated in methanol at 65° C. and 50° C., and HPLC was used to monitor possible degradation of these compounds (C8, 250 mm, NH4OAc 10 mmol in MeCN and H2O, operation temperature: 65° C.).

In data set [2] the test system is HCV replicon. Nature of the data set: HCV subgenomic replicon assay (Huh7 ET luc-ubi-neo/ET cells, luciferase end point). The format is cell-based. The note with it: read-out: Antiviral activity IC50. As to the method:
The anti-HCV activity of cyclosporine derivatives were evaluated in the HCV subgenomic replicon assay. The assay use the cell line ET (luc-ubi-neo/ET), which is a Huh7 human hepatoma cell line harboring an HCV replicon with a stable luciferase (Luc) reporter. HCV RNA replication was assessed by quantifying HCV replicon-derived luciferase activity. The antiviral activity of cyclosporine analogs were evaluated after drug treatment, the EC 50 and EC 90 were determined in subsequent assessments by using the luciferase end point (Krieger, N. et al., 2001, J. Virol. 75:4614-4624; Pietschmann, T. et al., 2002, J. Virol. 76:4008-4021; each of which is incorporated herein by reference).

[3] abbreviates: Huh7 ET (luc-ubi-neo/ET) cells, HCV replicon-derived luciferase activity.

Read-outs that look alike come from different tables or passages of the source. Numbered stars: 1 amine (or outer) side, 2 acyl side, 3 side chain; on linkers, the order of the positions; unused ones are H or OH. Square brackets hold non-standard residues; d marks the D form. Peptide text beside a SMILES is read from it. ξ: configuration not given here. MeBmt = C/C=C/C[C@@H](C)[C@@H](O)[C@H](NC)C(=O)O; X1 = CN([C@H](SCCCN1CCOCC1)C(=O)[*:2])[*:1]; X2 = CCN(CC)CCCS[C@H](C(=O)[*:2])N(C)[*:1]; X3 = CCN(CC)CCS[C@H](C(=O)[*:2])N(C)[*:1]; NMeIle(3ξ) = CCC(C)[C@H](NC)C(=O)O; NMeL = CN[C@@H](CC(C)C)C(=O)O; NMeV = CN[C@H](C(=O)O)C(C)C; Abu = CC[C@H](N)C(=O)O

What is called IC50 is the concentration that gives 50% inhibition.

Turning to `C/C=C/C[C@@H](C)[C@@H](O)[C@H]1C(=O)N[C@@H](CC)C(=O)N(C)[C@H](SCCN(C)C)C(=O)N(C)[C@@H](CC(C)(C)O)C(=O)N[C@@H](C(C)C)C(=O)N(C)[C@@H](CC(C)C)C(=O)N[C@@H](C)C(=O)N[C@H](C)C(=O)N(C)[C@@H](CC(C)C)C(=O)N(C)[C@@H](CC(C)C)C(=O)N(C)[C@@H](C(C)C)C(=O)N1C` [SCY-635, reference compound], the “Chemical stability (conversion to epimer), in words” value in data set [1] was “not chemically stable”.

With `C/C=C/C[C@@H](C)[C@@H](O)[C@H]1C(=O)N[C@@H](CC)C(=O)N(C)[C@H](SCCN(C)C)C(=O)N(C)[C@@H](CC(C)C)C(=O)N[C@@H](C(C)C)C(=O)N(C)[C@@H](CC(C)C)C(=O)N[C@@H](C)C(=O)N[C@H](C)C(=O)N(C)[C@@H](CC(C)C)C(=O)N(C)[C@@H](CC(C)C)C(=O)N(C)[C@@H](C(C)C)C(=O)N1C` [drawing 58, reference compound], the results for the “Epimerization in MeOH at 50° C.” value in data set [1] (29 hrs), in data set [1] (77 hrs) and in data set [1] (125 hrs) were 25.5%, 31.8% and 34.9%, respectively.

For the molecule `C/C=C/C[C@@H](C)[C@@H](O)[C@H]1C(=O)N[C@@H](CC)C(=O)N(C)CC(=O)N(C)[C@@H](C(C)C)C(=O)N[C@@H](C(C)C)C(=O)N(C)[C@@H](CC(C)C)C(=O)N[C@@H](C)C(=O)N[C@H](C)C(=O)N(C)[C@@H](CC(C)C)C(=O)N(C)[C@@H](CC(C)C)C(=O)N(C)[C@@H](C(C)C)C(=O)N1C` [SDZ-220-384, N-MeVal-4-cyclosporin, reference compound], the half-inhibitory concentration (IC50) in data set [2] (setting [3]) was 170 nM.

With `C/C=C/C[C@@H](C)[C@@H](O)[C@H]1C(=O)N[C@@H](CC)C(=O)N(C)[C@H](SCCN(CC)CC)C(=O)N(C)[C@@H](C(C)CC)C(=O)N[C@@H](C(C)C)C(=O)N(C)[C@@H](CC(C)C)C(=O)N[C@@H](C)C(=O)N[C@H](C)C(=O)N(C)[C@@H](CC(C)C)C(=O)N(C)[C@@H](CC(C)C)C(=O)N(C)[C@@H](C(C)C)C(=O)N1C` (stereo partly drawn) [Example 4, [(R)-2-(N,N-Diethylamino)ethylthio-Sar]-3-[N-methylisoleucine]-4-cyclosporin] (cyclo(A[dA][NMeL][NMeL][NMeV][MeBmt][Abu][X3][NMeIle(3ξ)]V[NMeL])), the concentration for half-maximal inhibition (IC50) in data set [2] (Hepatitis C virus, Huh7 ET) amounted to 40 nM.

Regarding `C/C=C/C[C@@H](C)[C@@H](O)[C@H]1C(=O)N[C@@H](CC)C(=O)N(C)[C@H](SCCN(C)C)C(=O)N(C)[C@@H](CC(C)C)C(=O)N[C@@H](C(C)C)C(=O)N(C)[C@@H](CC(C)C)C(=O)N[C@@H](C)C(=O)N[C@H](C)C(=O)N(C)[C@@H](CC(C)C)C(=O)N(C)[C@@H](CC(C)C)C(=O)N(C)[C@@H](C(C)C)C(=O)N1C` [drawing 57], the “Epimerization in MeOH at 65° C.” value in data set [1] (2 hours) is on record as 12%; in data set [1] (4 hours), 19%; in data set [1] (6 hours) it was 23%.

Turning to `C/C=C/C[C@@H](C)[C@@H](O)[C@H]1C(=O)N[C@@H](CC)C(=O)N(C)[C@H](SCCCN(CC)CC)C(=O)N(C)[C@@H](C(C)CC)C(=O)N[C@@H](C(C)C)C(=O)N(C)[C@@H](CC(C)C)C(=O)N[C@@H](C)C(=O)N[C@H](C)C(=O)N(C)[C@@H](CC(C)C)C(=O)N(C)[C@@H](CC(C)C)C(=O)N(C)[C@@H](C(C)C)C(=O)N1C` (some centres unmarked) (cyclo(A[dA][NMeL][NMeL][NMeV][MeBmt][Abu][X2][NMeIle(3ξ)]V[NMeL])), the “Epimerization in MeOH at 50° C.” value in data set [1] (29 hrs), in data set [1] (77 hrs) and in data set [1] (125 hrs) was 0% throughout.

On to `C/C=C/C[C@@H](C)[C@@H](O)[C@H]1C(=O)N[C@@H](CC)C(=O)N(C)[C@H](SCCCN2CCOCC2)C(=O)N(C)[C@@H](C(C)CC)C(=O)N[C@@H](C(C)C)C(=O)N(C)[C@@H](CC(C)C)C(=O)N[C@@H](C)C(=O)N[C@H](C)C(=O)N(C)[C@@H](CC(C)C)C(=O)N(C)[C@@H](CC(C)C)C(=O)N(C)[C@@H](C(C)C)C(=O)N1C` (stereo partly drawn) [Example 6, [(R)-3-(N-Morpholino)propylthio-Sar]-3-[N-methylisoleucine]-4-cyclosporin] (cyclo(A[dA][NMeL][NMeL][NMeV][MeBmt][Abu][X1][NMeIle(3ξ)]V[NMeL])), for which the half-maximal inhibitory concentration (IC50) in data set [2] (Hepatitis C virus, Huh7 ET) turned out to be 50 nM.

In the case of `C/C=C/C[C@@H](C)[C@@H](O)[C@H]1C(=O)N[C@@H](CC)C(=O)N(C)CC(=O)N(C)[C@@H]([C@@H](C)CC)C(=O)N[C@@H](C(C)C)C(=O)N(C)[C@@H](CC(C)C)C(=O)N[C@@H](C)C(=O)N[C@H](C)C(=O)N(C)[C@@H](CC(C)C)C(=O)N(C)[C@@H](CC(C)C)C(=O)N(C)[C@@H](C(C)C)C(=O)N1C` [SDZ-NIM-811, N-MeIle-4-Cyclosporin, reference compound], the IC50 in data set [2] (Hepatitis C virus, Huh7 ET) was found to be 150 nM.

For the molecule `C/C=C/C[C@@H](C)[C@@H](O)[C@H]1C(=O)N[C@@H](CC)C(=O)N(C)[C@H](SCCN(CC)CC)C(=O)N(C)[C@@H](C(C)CC)C(=O)N[C@@H](C(C)C)C(=O)N(C)[C@@H](CC(C)C)C(=O)N[C@@H](C)C(=O)N[C@H](C)C(=O)N(C)[C@@H](CC(C)C)C(=O)N(C)[C@@H](CC(C)C)C(=O)N(C)[C@@H](C(C)C)C(=O)N1C` (some centres unmarked) [reference compound] (cyclo(A[dA][NMeL][NMeL][NMeV][MeBmt][Abu][X3][NMeIle(3ξ)]V[NMeL])), the “Epimerization in MeOH at 50° C.” value in data set [1] (29 hrs) is 4.4%; in data set [1] (77 hrs), 10.4%; in data set [1] (125 hrs) it was 16.2%.

Regarding “[(S)-2-(N,N-Diethylamino)ethylthio-Sar]-3-[N-methylvaline]-4-cyclosporin”, the IC50 in data set [2] (setting [3]) stood at 3660 nM.

As for `C/C=C/C[C@@H](C)[C@@H](O)[C@H]1C(=O)N[C@@H](CC)C(=O)N(C)[C@H](SCCCN(CC)CC)C(=O)N(C)[C@@H](C(C)C)C(=O)N[C@@H](C(C)C)C(=O)N(C)[C@@H](CC(C)C)C(=O)N[C@@H](C)C(=O)N[C@H](C)C(=O)N(C)[C@@H](CC(C)C)C(=O)N(C)[C@@H](CC(C)C)C(=O)N(C)[C@@H](C(C)C)C(=O)N1C` (cyclo(A[dA][NMeL][NMeL][NMeV][MeBmt][Abu][X2][NMeV]V[NMeL])), the “Epimerization in MeOH at 50° C.” value in data set [1] (29 hrs), in data set [1] (77 hrs) and in data set [1] (125 hrs) was 0% in each case.

As for `C/C=C/C[C@@H](C)[C@@H](O)[C@H]1C(=O)N[C@@H](CC)C(=O)N(C)[C@H](SCCCN2CCOCC2)C(=O)N(C)[C@@H](C(C)C)C(=O)N[C@@H](C(C)C)C(=O)N(C)[C@@H](CC(C)C)C(=O)N[C@@H](C)C(=O)N[C@H](C)C(=O)N(C)[C@@H](CC(C)C)C(=O)N(C)[C@@H](CC(C)C)C(=O)N(C)[C@@H](C(C)C)C(=O)N1C` (cyclo(A[dA][NMeL][NMeL][NMeV][MeBmt][Abu][X1][NMeV]V[NMeL])), the “Epimerization in MeOH at 50° C.” value in data set [1] (29 hrs), in data set [1] (77 hrs) and in data set [1] (125 hrs) was 0% each time.

Turning to `C/C=C/C[C@@H](C)[C@@H](O)[C@H]1C(=O)N[C@@H](CC)C(=O)N(C)[C@H](SCCCN2CCOCC2)C(=O)N(C)[C@@H](C(C)CC)C(=O)N[C@@H](C(C)C)C(=O)N(C)[C@@H](CC(C)C)C(=O)N[C@@H](C)C(=O)N[C@H](C)C(=O)N(C)[C@@H](CC(C)C)C(=O)N(C)[C@@H](CC(C)C)C(=O)N(C)[C@@H](C(C)C)C(=O)N1C` (some centres unmarked) (cyclo(A[dA][NMeL][NMeL][NMeV][MeBmt][Abu][X1][NMeIle(3ξ)]V[NMeL])), the “Epimerization in MeOH at 50° C.” value in data set [1] (29 hrs), in data set [1] (77 hrs) and in data set [1] (125 hrs) was 0% in each case.

Turning to `C/C=C/C[C@@H](C)[C@@H](O)[C@H]1C(=O)N[C@@H](CC)C(=O)N(C)[C@H](SCCN(CC)CC)C(=O)N(C)[C@@H](C(C)C)C(=O)N[C@@H](C(C)C)C(=O)N(C)[C@@H](CC(C)C)C(=O)N[C@@H](C)C(=O)N[C@H](C)C(=O)N(C)[C@@H](CC(C)C)C(=O)N(C)[C@@H](CC(C)C)C(=O)N(C)[C@@H](C(C)C)C(=O)N1C` [Example 1, [(R)-2-(N,N-Diethylamino)ethylthio-Sar]-3-[N-methylvaline]-4-cyclosporin] (cyclo(A[dA][NMeL][NMeL][NMeV][MeBmt][Abu][X3][NMeV]V[NMeL])), the half-inhibitory concentration (IC50) in data set [2] (Hepatitis C virus, Huh7 ET) was 50 nM.

For `C/C=C/C[C@@H](C)[C@@H](O)[C@H]1C(=O)N[C@@H](CC)C(=O)N(C)[C@H](SCCN(C)C)C(=O)N(C)[C@@H](CC(C)C)C(=O)N[C@@H](C(C)C)C(=O)N(C)[C@@H](CC(C)C)C(=O)N[C@@H](C)C(=O)N[C@H](C)C(=O)N(C)[C@@H](CC(C)C)C(=O)N(C)[C@@H](CC(C)C)C(=O)N(C)[C@@H](C(C)C)C(=O)N1C` [[(R)-2-(N,N-Dimethylamino)ethylthio-Sar]-3-cyclosporin, reference compound], the “Chemical stability (conversion to epimer), in words” value in data set [1] is recorded as “not stable”.

The values above are taken from patent US9217015B2, “Cyclosporin derivatives for the treatment and prevention of a viral infection” (S&T Global Inc., priority 2010, dated 2015).
